{
  "source": "ChEMBL document CHEMBL1201862",
  "about": "“PubChem BioAssay data set” (2004)",
  "key": {"Protein skinhead-1": {"target": "T1, Protein skinhead-1 (Caenorhabditis elegans, UniProt P34707)", "T1 sequence (P34707 whole entry)": "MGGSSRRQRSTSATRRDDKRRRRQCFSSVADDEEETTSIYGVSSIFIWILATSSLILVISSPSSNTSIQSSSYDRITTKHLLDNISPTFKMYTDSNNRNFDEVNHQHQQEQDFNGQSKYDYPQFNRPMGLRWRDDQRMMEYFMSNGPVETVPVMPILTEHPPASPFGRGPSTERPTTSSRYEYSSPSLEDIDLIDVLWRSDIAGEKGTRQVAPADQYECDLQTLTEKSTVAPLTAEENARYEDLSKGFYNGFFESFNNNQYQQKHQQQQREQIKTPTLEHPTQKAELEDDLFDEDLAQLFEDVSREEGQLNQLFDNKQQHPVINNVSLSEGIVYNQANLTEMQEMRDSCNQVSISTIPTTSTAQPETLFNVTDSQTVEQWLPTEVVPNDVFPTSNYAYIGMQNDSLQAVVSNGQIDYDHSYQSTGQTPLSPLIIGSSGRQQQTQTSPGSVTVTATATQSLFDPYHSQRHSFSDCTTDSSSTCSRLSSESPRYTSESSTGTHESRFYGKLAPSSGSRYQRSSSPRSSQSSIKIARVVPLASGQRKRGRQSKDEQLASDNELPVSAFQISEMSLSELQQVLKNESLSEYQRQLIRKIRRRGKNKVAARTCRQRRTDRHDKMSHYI", "assay_type": "functional"}, "[1]": {"experiment": "Luminescence Cell-Based Dose Confirmation HTS to Identify Activators of 5'UTR Stem-Loop Driven Alpha-Synuclein mRNA Translation in H4 Neuroglioblastoma Cells. [Related pubchem assays: 1829 (Project Summary), 1814 (Primary HTS)]", "assay_type": "functional"}, "[2]": {"experiment": "Luminescence Cell-Based Dose Response HTS to Identify Activators of Luciferase Translation or Activity in H4 […] Cells. [Related pubchem assays: 1829 (Project Summary), 1814 (Primary HTS)]", "assay_type": "functional"}, "H4": {"system": "H4", "experiment": "Luminescence Cell-Based Dose Response HTS to Identify Activators of 5'UTR Stem-Loop Driven Prion Protein mRNA Translation in H4 Neuroglioblastoma Cells. [Related pubchem assays: 1829 (Project Summary), 1814 (Primary HTS)]", "assay_type": "functional", "settings": "Homo sapiens"}, "[3]": {"target": "T2, Rac GTPase-activating protein 1 (Homo sapiens, UniProt Q9H0H5)", "T2 sequence (Q9H0H5 whole entry)": "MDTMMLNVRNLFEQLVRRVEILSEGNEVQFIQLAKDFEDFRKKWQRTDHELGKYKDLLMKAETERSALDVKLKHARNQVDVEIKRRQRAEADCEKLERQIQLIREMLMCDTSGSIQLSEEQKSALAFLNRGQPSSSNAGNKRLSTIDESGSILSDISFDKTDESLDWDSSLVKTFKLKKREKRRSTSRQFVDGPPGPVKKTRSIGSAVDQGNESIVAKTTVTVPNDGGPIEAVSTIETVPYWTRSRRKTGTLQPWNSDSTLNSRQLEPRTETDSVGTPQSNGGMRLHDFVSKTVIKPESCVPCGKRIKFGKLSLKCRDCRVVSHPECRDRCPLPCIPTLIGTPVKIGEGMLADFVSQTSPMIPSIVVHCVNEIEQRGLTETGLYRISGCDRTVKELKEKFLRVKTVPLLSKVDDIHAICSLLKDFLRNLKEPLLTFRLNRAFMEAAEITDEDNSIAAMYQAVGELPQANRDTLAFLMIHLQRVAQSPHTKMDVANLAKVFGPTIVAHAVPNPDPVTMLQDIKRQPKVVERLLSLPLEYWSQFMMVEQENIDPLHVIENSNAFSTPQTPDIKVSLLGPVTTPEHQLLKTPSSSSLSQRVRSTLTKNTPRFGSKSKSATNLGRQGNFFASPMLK", "experiment": "blockers of MgcRacGAP-driven Rac1 GTP hydrolysis – biochemical, ADP Hunter fluorescence, primary and confirmatory, confirmation (AID 624330)", "assay_type": "functional"}, "Nonstructural protein 1": {"target": "Nonstructural protein 1 (Influenza A virus, UniProt Q194T2)", "assay_type": "functional, Influenza A virus (A/California/07/2009(H1N1))"}, "[4]": {"target": "Luciferin 4-monooxygenase (Photinus pyralis, UniProt P08659)", "experiment": "inhibition of purified Photinus pyralis luciferase – biochemical, luminescence, dose response (AID 1891)"}, "[5]": {"experiment": "Luminescence Cell-Based Dose Confirmation HTS to Identify Inhibitors of Platelet Dense Granule Release. [Related pubchem assays: 1663 (Primary HTS), 1678 (Summary of Project)]", "assay_type": "functional"}, "[6]": {"experiment": "luciferase reporter signal suppression in cells – H4 neuroglioma cells, luminescence, dose response (AID 1990)", "assay_type": "functional, cell-based"}, "[7]": {"experiment": "Luminescence Cell-Based Dose Response HTS to Identify Inhibitors of 5'UTR Stem-Loop Driven Prion Protein mRNA Translation in H4 Neuroglioblastoma Cells. [Related pubchem assays: 1827 (Project Summary), 1813 (Primary HTS)]", "assay_type": "functional"}, "[8]": {"experiment": "alpha-synuclein stem-loop luciferase translation blockers – H4 neuroglioma cells, luminescence, confirmation (AID 1988)", "assay_type": "functional, cell-based"}},
  "note": "The source made the active and inactive calls. Rule as the data show it, for most assays here: actives have a measured EC50 and inactives only a lower limit.",
  "data": [
    {"smiles": "Fc1ccc(Nc2cccc3nccnc23)cc1", "values": [
      {"measurement": "IC50", "setting": "Protein skinhead-1", "result": "34.1 µM (active)"}
    ]},
    {"smiles": "COc1ccc(C2CC(c3ccc4ccccc4c3)=NN2C(=O)CN2CCC(C(N)=O)CC2)cc1", "note": "(centres undefined)", "values": [
      {"measurement": "EC50", "setting": "[1]", "result": "15.6 µM (active)"},
      {"measurement": "EC50", "setting": "[2]", "result": "18.1 µM (active)"},
      {"measurement": "EC50", "setting": "H4", "result": "16.5 µM (active)"}
    ]},
    {"smiles": "Nc1ccc(N2CCOCC2)c(Cl)c1", "values": [
      {"measurement": "IC50", "setting": "[3]", "result": "38.2 µM (active)"}
    ]},
    {"smiles": "COc1ccccc1NC(=O)Nc1nc(CC(=O)Nc2ccc(N(C)C)cc2)cs1", "values": [
      {"measurement": "IC50", "setting": "Nonstructural protein 1", "result": "26.9 µM (active)"}
    ]},
    {"smiles": "O=C(Nc1ccccc1Oc1ccccc1)c1cccs1", "values": [
      {"measurement": "IC50", "setting": "Protein skinhead-1", "result": "> 100 µM (inactive)"}
    ]},
    {"smiles": "C/C(=C\\c1ccco1)CN1CCC(N2CCC(C(=O)N3CCOCC3)CC2)CC1", "values": [
      {"measurement": "EC50", "setting": "[1]", "result": "11.2 µM (active)"},
      {"measurement": "EC50", "setting": "[2]", "result": "15.5 µM (active)"},
      {"measurement": "EC50", "setting": "H4", "result": "> 120 µM (not active)"}
    ]},
    {"smiles": "C/C=C/c1ccc(OCCCCN2CCN(CC)CC2)c(OC)c1", "values": [
      {"measurement": "IC50", "setting": "[3]", "result": "82 µM (active)"}
    ]},
    {"smiles": "Cc1cccc(N2CCN(S(=O)(=O)c3ccc4c(c3)C(C)(C)C(=O)N4C)CC2C)c1", "note": "(centres undefined)", "values": [
      {"measurement": "EC50", "setting": "[4]", "result": "> 112 µM (not active)"},
      {"measurement": "EC50", "setting": "[5]", "result": "> 112 µM (not active)"}
    ]},
    {"smiles": "Cc1ccc(C(=O)CC(=O)c2ccccc2)cc1", "values": [
      {"measurement": "EC50", "setting": "[1]", "result": "5.35 µM (active)"},
      {"measurement": "EC50", "setting": "[2]", "result": "1.75 µM (active)"},
      {"measurement": "EC50", "setting": "H4", "result": "> 120 µM (not active)"}
    ]},
    {"smiles": "CCCCn1c(N)c(N(CCC(C)C)C(=O)C2CC(=O)N(c3ccc(OC)cc3OC)C2)c(=O)[nH]c1=O", "note": "(centres undefined)", "values": [
      {"measurement": "EC50", "setting": "[4]", "result": "> 112 µM (not active)"},
      {"measurement": "EC50", "setting": "[5]", "result": "> 112 µM (not active)"}
    ]},
    {"smiles": "CC(C)c1nnc(NC(=O)COc2ccccc2[N+](=O)[O-])s1", "values": [
      {"measurement": "EC50", "setting": "[1]", "result": "0.112 µM (active)"},
      {"measurement": "EC50", "setting": "[2]", "result": "67 µM (active)"},
      {"measurement": "EC50", "setting": "H4", "result": "13.6 µM (active)"}
    ]},
    {"smiles": "CSc1nc(N(C)NC(=O)c2ccc(F)cc2)c2ccccc2n1", "values": [
      {"measurement": "EC50", "setting": "[6]", "result": "10.6 µM (active)"},
      {"measurement": "EC50", "setting": "[7]", "result": "0.258 µM (active)"},
      {"measurement": "EC50", "setting": "[8]", "result": "< 0.195 µM (active)"}
    ]},
    {"smiles": "O=C(CSc1nnc2ccccn12)N1CCc2ccccc2C1", "values": [
      {"measurement": "EC50", "setting": "[1]", "result": "13.1 µM (active)"},
      {"measurement": "EC50", "setting": "[2]", "result": "38.9 µM (active)"},
      {"measurement": "EC50", "setting": "H4", "result": "78 µM (active)"}
    ]},
    {"smiles": "CCN(CC(=O)Nc1cc(Cl)ccc1OC)CC(=O)NC1CCS(=O)(=O)C1", "note": "(centres undefined)", "values": [
      {"measurement": "IC50", "setting": "[3]", "result": "95.7 µM (active)"}
    ]},
    {"smiles": "CCCn1c(N)c(C(c2ccc(OC)cc2)N2CCN(c3ccccc3)CC2)c(=O)[nH]c1=O", "note": "(centres undefined)", "values": [
      {"measurement": "IC50", "setting": "Protein skinhead-1", "result": "> 100 µM (inactive)"}
    ]},
    {"smiles": "CN(C)c1ccc(C=NN2CCCCCC2)cc1", "values": [
      {"measurement": "IC50", "setting": "Nonstructural protein 1", "result": "48.1 µM (active)"}
    ]},
    {"smiles": "O=C(Sc1ccc(Cl)cc1)c1ccccn1", "values": [
      {"measurement": "IC50", "setting": "Protein skinhead-1", "result": "44.5 µM (active)"}
    ]},
    {"smiles": "COc1cc2sc3cc(NCc4ccc(C)o4)ccc3c(=O)c2cc1OC", "values": [
      {"measurement": "IC50", "setting": "Protein skinhead-1", "result": "> 100 µM (inactive)"}
    ]},
    {"smiles": "N#CC1(Nc2ccc(-c3ccc(NC4(C#N)CCCC4)cc3)cc2)CCCC1", "values": [
      {"measurement": "IC50", "setting": "[3]", "result": "10.3 µM (active)"}
    ]},
    {"smiles": "Cc1nonc1C(=O)N/N=C/c1ccc(O)cc1", "values": [
      {"measurement": "EC50", "setting": "[4]", "result": "0.916 µM (active)"},
      {"measurement": "EC50", "setting": "[5]", "result": "0.172 µM (active)"},
      {"measurement": "IC50", "setting": "[3]", "result": "95.6 µM (active)"}
    ]},
    {"smiles": "Cc1cc(S(=O)(=O)N2CCCC2)ccc1OCC(=O)N1CCOCC1", "values": [
      {"measurement": "EC50", "setting": "[6]", "result": "> 120 µM (not active)"},
      {"measurement": "EC50", "setting": "[7]", "result": "> 120 µM (not active)"},
      {"measurement": "EC50", "setting": "[8]", "result": "> 120 µM (not active)"}
    ]},
    {"smiles": "Cc1nn(-c2ccccc2)c(O)c1/C=N/N(C)c1ccccc1", "values": [
      {"measurement": "IC50", "setting": "[3]", "result": "19.3 µM (active)"}
    ]},
    {"smiles": "COc1ccc(/C=N/NC(=O)CN2CCCCCCC2)c(C)c1C", "values": [
      {"measurement": "IC50", "setting": "[3]", "result": "139 µM (active)"}
    ]},
    {"smiles": "N#Cc1c(O)nsc1Nc1ccc(Cl)cc1", "values": [
      {"measurement": "IC50", "setting": "[3]", "result": "79.9 µM (active)"}
    ]},
    {"smiles": "Nc1ccc2c(c1)[nH]c(=O)c1cc(N)ccc12", "values": [
      {"measurement": "IC50", "setting": "[3]", "result": "10.9 µM (active)"}
    ]},
    {"smiles": "NS(=O)(=O)c1ccc(Nc2nc(-c3ccc(O)cc3)cs2)cc1", "values": [
      {"measurement": "IC50", "setting": "[3]", "result": "19.9 µM (active)"}
    ]}
  ]
}
